In patent US12194051B2, “5-azaindazole derivatives as adenosine receptor antagonists” (MERCK PATENT GMBH, priority 2018, dated 2025) one finds IC50 data, which are given here for 25 molecules.

One experiment addresses T1, human A2A receptors (Homo sapiens, UniProt P29274).
T1 construct: expressed in transfected cells; host or cells: HEK293
The experiment can be described thus: Inhibition of human A2A receptor in recombinant HEK293 cells, cAMP quantification (HTRF). It is filed as cell-based. The settings on record: read-out: A2A (Category). The procedure, abridged: (§1)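 cAMP accumulation, determined by HTRF after a 15 min incubation, served as the functional measure of receptor activity.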
(TR-FRET usually uses a lanthanide donor and a delayed reading to cut background.)

In the next experiment the target is T2, human A2B receptors (Homo sapiens, UniProt P29275).
T2 construct: expressed in transfected cells; host or cells: HEK293
T2 sequence (P29275 1-332): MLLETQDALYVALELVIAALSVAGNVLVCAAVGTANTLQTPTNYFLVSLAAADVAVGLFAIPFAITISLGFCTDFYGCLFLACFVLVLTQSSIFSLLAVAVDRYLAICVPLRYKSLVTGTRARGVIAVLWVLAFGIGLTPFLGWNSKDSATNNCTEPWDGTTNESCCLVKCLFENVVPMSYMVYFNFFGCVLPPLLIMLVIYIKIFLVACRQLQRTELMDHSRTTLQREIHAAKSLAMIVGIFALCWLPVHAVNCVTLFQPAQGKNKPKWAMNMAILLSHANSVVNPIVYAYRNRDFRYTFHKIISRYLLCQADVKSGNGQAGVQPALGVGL
The experiment can be described thus: Inhibition of human A2B receptor in recombinant HEK293 cells, cAMP quantification (HTRF). It is filed as cell-based. To be noted: read-out: A2B (Category). The method in brief:
as §1

T1 sequence (P29274 whole entry): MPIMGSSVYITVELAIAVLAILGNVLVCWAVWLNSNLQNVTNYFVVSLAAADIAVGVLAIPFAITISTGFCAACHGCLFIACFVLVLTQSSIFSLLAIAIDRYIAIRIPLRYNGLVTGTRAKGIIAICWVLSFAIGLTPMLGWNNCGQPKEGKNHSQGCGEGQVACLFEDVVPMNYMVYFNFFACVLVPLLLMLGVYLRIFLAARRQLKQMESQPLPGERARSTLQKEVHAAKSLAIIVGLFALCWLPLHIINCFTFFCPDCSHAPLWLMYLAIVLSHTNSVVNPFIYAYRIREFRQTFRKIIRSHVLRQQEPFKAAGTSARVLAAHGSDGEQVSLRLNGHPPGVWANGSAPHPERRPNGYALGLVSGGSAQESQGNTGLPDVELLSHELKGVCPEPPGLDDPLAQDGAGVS

Consider `O=C(c1cc2c(cn1)c(Nc1cccc(=O)[nH]1)nn2CC(F)(F)F)N1CCCOCC1` [Compound 86, 6-[6-([1,4]Oxazepane-4-carbonyl)-1-(2,2,2-trifluoro-ethyl)-1H-pyrazolo[4,3-c]pyridin-3-ylamino]-1H-pyridin-2-one], for which the IC50 on human A2A receptors is under 100 nM; at human A2B receptors, under 1000 nM.
With `[2H]C1([2H])COCCN(C(=O)c2cc3c(cn2)c(Nc2ccc(F)cn2)nn3CC(F)(F)F)C1` [Compound 91, (6,6-dideuterio-1,4-oxazepan-4-yl)-[3-[(5-fluoro-2-pyridyl)amino]-1-(2,2,2-trifluoroethyl)pyrazolo[4,3-c]pyridin-6-yl]methanone], the IC50 at human A2A receptors and at human A2B receptors was under 100 nM in each case.
Regarding `O=C(c1cc2c(cn1)c(Nc1ccc(F)cn1)nn2CC(F)(F)F)N1CCOC[C@@H](F)C1` [Compound 93, [(6S)-6-fluoro-1,4-oxazepan-4-yl]-[3-[(5-fluoro-2-pyridyl)amino]-1-(2,2,2-trifluoroethyl)pyrazolo[4,3-c]pyridin-6-yl]methanone], the IC50 at human A2A receptors and at human A2B receptors was under 100 nM throughout.
As to `O=C(c1cc2c(cn1)c(Nc1ccc(F)cn1)nn2CC(F)(F)F)N1CCC(O)CC1` [Compound 94, [3-[(5-fluoro-2-pyridyl)amino]-1-(2,2,2-trifluoroethyl)pyrazolo[4,3-c]pyridin-6-yl]-(4-hydroxypiperidin-1-yl)methanone], the IC50 at human A2A receptors and on human A2B receptors was under 100 nM each time.
In the case of `CC1(O)CCN(C(=O)c2cc3c(cn2)c(Nc2ccc(F)cn2)nn3CC(F)(F)F)CC1` [Compound 95, [3-(5-Fluoro-pyridin-2-ylamino)-1-(2,2,2-trifluoro-ethyl)-1H-pyrazolo[4,3-c]pyridin-6-yl]-(4-hydroxy-4-methyl-piperidin-1-yl)-methanone], the IC50 on human A2A receptors was under 100 nM; at human A2B receptors, under 1000 nM.
Regarding `O=C(c1cc2c(cn1)c(Nc1ccc(F)cn1)nn2CC(F)(F)F)N1CCC(F)CC1` [Compound 96, (4-Fluoro-piperidin-1-yl)-[3-(5-fluoro-pyridin-2-ylamino)-1-(2,2,2-trifluoro-ethyl)-1H-pyrazolo[4,3-c]pyridin-6-yl]-methanone], the IC50 at human A2A receptors was under 100 nM; at human A2B receptors it was under 1000 nM.
For `O=C(c1cc2c(cn1)c(Nc1ccc(F)cn1)nn2CC(F)(F)F)N1CCC[C@@H](O)C1` [Compound 97, [(3R)-3-hydroxy-piperidin-1-yl]-[3-(5-Fluoro-pyridin-2-ylamino)-1-(2,2,2-trifluoro-ethyl)-1H-pyrazolo[4,3-c]pyridin-6-yl]-methanone], the IC50 was under 100 nM on human A2A receptors and under 1000 nM on human A2B receptors.
With `O=C(c1cc2c(cn1)c(Nc1ccc(F)cn1)nn2CC(F)(F)F)N1CCC[C@H](O)C1` [Compound 98, [(3S)-3-hydroxy-piperidin-1-yl]-[3-(5-Fluoro-pyridin-2-ylamino)-1-(2,2,2-trifluoro-ethyl)-1H-pyrazolo[4,3-c]pyridin-6-yl]methanone], the IC50 was under 100 nM on human A2A receptors and under 1000 nM on human A2B receptors.
For `O=C(c1cc2c(cn1)c(Nc1ccc(F)cn1)nn2CC(F)(F)F)N1CCC[C@@H](F)C1` [Compound 99, [(3R)-3-fluoro-piperidin-1-yl]-[3-(5-Fluoro-pyridin-2-ylamino)-1-(2,2,2-trifluoro-ethyl)-1H-pyrazolo[4,3-c]pyridin-6-yl]methanone], in that order: under 100 nM and under 1000 nM.
For `O=C(c1cc2c(cn1)c(Nc1ccc(F)cn1)nn2CC(F)(F)F)N1CCC[C@H](F)C1` [Compound 100, [(3S)-3-fluoro-piperidin-1-yl]-[3-(5-Fluoro-pyridin-2-ylamino)-1-(2,2,2-trifluoro-ethyl)-1H-pyrazolo[4,3-c]pyridin-6-yl]methanone], in that order: under 100 nM and under 1000 nM.
For `O=C(c1cc2c(cn1)c(Nc1ccc(F)cn1)nn2CC(F)(F)F)N1CCC[C@@H](CO)C1` [Compound 101, [3-[(5-fluoro-2-pyridyl)amino]-1-(2,2,2-trifluoroethyl)pyrazolo[4,3-c]pyridin-6-yl]-[(3R)-3-(hydroxymethyl)-1-piperidyl]methanone], in that order: under 100 nM and under 100 nM.
As for `O=C(c1cc2c(cn1)c(Nc1ccc(F)cn1)nn2CC(F)(F)F)N1CCC[C@H](CO)C1` [Compound 102, [3-[(5-fluoro-2-pyridyl)amino]-1-(2,2,2-trifluoroethyl)pyrazolo[4,3-c]pyridin-6-yl]-[(3S)-3-(hydroxymethyl)-1-piperidyl]methanone], the IC50 on human A2A receptors and at human A2B receptors was under 100 nM each time.
For `O=C(c1cc2c(cn1)c(Nc1ccc(F)cn1)nn2CC(F)(F)F)N1[C@@H]2CC[C@H]1C[C@@H](O)C2` [Compound 107, [3-[(5-fluoro-2-pyridyl)amino]-1-(2,2,2-trifluoroethyl)pyrazolo[4,3-c]pyridin-6-yl]-(3-endo-hydroxy-8-azabicyclo[3.2.1]octan-8-yl)methanone], the IC50 on human A2A receptors and on human A2B receptors was under 100 nM throughout.
Take `O=C(c1cc2c(cn1)c(Nc1cc(F)ccn1)nn2CC(F)(F)F)N1CCOC[C@@H](F)C1` [Compound 110, [(6S)-6-fluoro-1,4-oxazepan-4-yl]-[3-(4-fluoro-pyridin-2-ylamino)-1-(2,2,2-trifluoro-ethyl)-1H-pyrazolo[4,3-c]pyridin-6-yl]-methanone]: the IC50 at human A2A receptors and on human A2B receptors was under 100 nM each time.
For the molecule `O=C(c1cc2c(cn1)c(Nc1cc(F)ccn1)nn2CC(F)(F)F)N1CCC(O)CC1` [Compound 111, [3-[(4-fluoro-2-pyridyl)amino]-1-(2,2,2-trifluoroethyl)pyrazolo[4,3-c]pyridin-6-yl]-(4-hydroxypiperidin-1-yl)methanone], the IC50 at human A2A receptors and at human A2B receptors was under 100 nM in each case.
Take `CC1(O)CCN(C(=O)c2cc3c(cn2)c(Nc2cc(F)ccn2)nn3CC(F)(F)F)CC1` [Compound 112, [3-(4-Fluoro-pyridin-2-ylamino)-1-(2,2,2-trifluoro-ethyl)-1H-pyrazolo[4,3-c]pyridin-6-yl]-(4-hydroxy-4-methyl-piperidin-1-yl)-methanone]: the IC50 on human A2A receptors and on human A2B receptors was under 100 nM throughout.
On to `CCC1(O)CCN(C(=O)c2cc3c(cn2)c(Nc2cc(F)ccn2)nn3CC(F)(F)F)CC1` [Compound 113, [3-(4-Fluoro-pyridin-2-ylamino)-1-(2,2,2-trifluoro-ethyl)-1H-pyrazolo[4,3-c]pyridin-6-yl]-(4-ethyl-4-hydroxypiperidin-1-yl)-methanone], for which the IC50 on human A2A receptors and on human A2B receptors was under 100 nM each time.
Take `CC(C)C1(O)CCN(C(=O)c2cc3c(cn2)c(Nc2cc(F)ccn2)nn3CC(F)(F)F)CC1` [Compound 114, [3-(4-Fluoro-pyridin-2-ylamino)-1-(2,2,2-trifluoro-ethyl)-1H-pyrazolo[4,3-c]pyridin-6-yl]-(4-isopropyl-4-hydroxypiperidin-1-yl)-methanone]: the IC50 at human A2A receptors and at human A2B receptors was under 100 nM in each case.
On to `O=C(c1cc2c(cn1)c(Nc1cc(F)ccn1)nn2CC(F)(F)F)N1CCC(O)(C2CC2)CC1` [Compound 115, [3-(4-Fluoro-pyridin-2-ylamino)-1-(2,2,2-trifluoro-ethyl)-1H-pyrazolo[4,3-c]pyridin-6-yl]-(4-cyclopropyl-4-hydroxypiperidin-1-yl)-methanone], for which the IC50 on human A2A receptors and at human A2B receptors was under 100 nM each time.
Turning to `O=C(c1cc2c(cn1)c(Nc1cc(F)ccn1)nn2CC(F)(F)F)N1CCC(F)CC1` [Compound 116, (4-Fluoro-piperidin-1-yl)-[3-(4-fluoro-pyridin-2-ylamino)-1-(2,2,2-trifluoro-ethyl)-1H-pyrazolo[4,3-c]pyridin-6-yl]-methanone], the IC50 at human A2A receptors and at human A2B receptors was under 100 nM each time.
For `O=C(c1cc2c(cn1)c(Nc1cc(F)ccn1)nn2CC(F)(F)F)N1CCC[C@H](O)C1` [Compound 117, [(3S)-3-hydroxy-piperidin-1-yl]-[3-(4-fluoro-pyridin-2-ylamino)-1-(2,2,2-trifluoro-ethyl)-1H-pyrazolo[4,3-c]pyridin-6-yl]methanone], the IC50 at human A2A receptors and at human A2B receptors was under 100 nM in each case.
Take `O=C(c1cc2c(cn1)c(Nc1cc(F)ccn1)nn2CC(F)(F)F)N1[C@@H]2CC[C@H]1C[C@@H](O)C2` [Compound 120, [3-[(4-fluoro-2-pyridyl)amino]-1-(2,2,2-trifluoroethyl)pyrazolo[4,3-c]pyridin-6-yl]-(3-endo-hydroxy-8-azabicyclo[3.2.1]octan-8-yl)methanone]: the IC50 on human A2A receptors and on human A2B receptors was under 100 nM each time.
As to `[2H]C1([2H])COCCN(C(=O)c2cc3c(cn2)c(Nc2cnccn2)nn3CC(F)(F)F)C1` [Compound 121], the IC50 on human A2A receptors was under 100 nM; on human A2B receptors it was under 1000 nM.
Consider `O=C(c1cc2c(cn1)c(Nc1cnccn1)nn2CC(F)(F)F)N1CCOC[C@@H](F)C1` [Compound 122, [(6S)-6-fluoro-1,4-oxazepan-4-yl]-[3-(pyrazin-2ylamino)-1-(2,2,2-trifluoro-ethyl)-1H-pyrazolo[4,3-c]pyridin-6-yl]-methanone], for which the IC50 at human A2A receptors and at human A2B receptors was under 100 nM throughout.
On to `CC1(O)CCN(C(=O)c2cc3c(cn2)c(Nc2cnccn2)nn3CC(F)(F)F)CC1` [Compound 123, [3-(pyrazin-2ylamino)-1-(2,2,2-trifluoro-ethyl)-1H-pyrazolo[4,3-c]pyridin-6-yl]-(4-hydroxy-4-methyl-piperidin-1-yl)-methanone], for which the IC50 on human A2A receptors and on human A2B receptors was under 1000 nM throughout.
